Converted amounts (≈) assume the structure as drawn.
How the values were obtained:
Streptococcus pneumoniae [1] = test: Antibacterial activity against multidrug resistant Streptococcus pneumoniae […] by CLSI microdilution susceptibility testing method; format: functional
Streptococcus pneumoniae [2] = test: Antibacterial activity against multidrug resistant Streptococcus pneumoniae […] assessed as resistant strains by CLSI microdilution susceptibility testing method; format: functional

| SMILES | MIC50 (Streptococcus pneumoniae [1]) | MIC90 (Streptococcus pneumoniae [1]) | Activity (Streptococcus pneumoniae [2]) |
| --- | --- | --- | --- |
| COc1cc(Cc2cnc(N)nc2N)c2cc(Cc3c(C(=O)N(C)C)[nH]c4ccc(Cl)cc34)oc2c1OC | 0.25 µg/mL (≈ 0.467 µM) | 0.5 µg/mL (≈ 0.935 µM) | – |
| CC1(C)S[C@@H]2[C@H](NC(=O)[C@H](N)c3ccc(O)cc3)C(=O)N2[C@H]1C(=O)O [AMOXICILLIN] | 2 µg/mL (≈ 5.47 µM) | 8 µg/mL (≈ 21.9 µM) | 48.2% |
| CO/N=C(\C(=O)N[C@@H]1C(=O)N2C(C(=O)O)=C(COC(C)=O)CS[C@H]12)c1csc(N)n1 [CEFOTAXIME] | 1 µg/mL (≈ 2.2 µM) | 2 µg/mL (≈ 4.39 µM) | 41.1% |
| CCC[C@@H]1C[C@@H](C(=O)N[C@@H]([C@H]2O[C@H](SC)[C@H](O)[C@@H](O)[C@H]2O)[C@H](C)Cl)N(C)C1 [CLINDAMYCIN] | 0.06 µg/mL (≈ 0.141 µM) | > 8 µg/mL | 34.8% |
| C[C@H]1c2cccc(O)c2C(=O)C2=C(O)[C@]3(O)C(=O)C(C(N)=O)=C(O)[C@@H](N(C)C)[C@@H]3[C@@H](O)[C@@H]21.O [DOXYCYCLINE] | 0.12 µg/mL | 8 µg/mL | 40.6% |
| CC[C@H]1OC(=O)[C@H](C)[C@@H](O[C@H]2C[C@@](C)(OC)[C@@H](O)[C@H](C)O2)[C@H](C)[C@@H](O[C@@H]2O[C@H](C)C[C@H](N(C)C)[C@H]2O)[C@](C)(O)C[C@@H](C)C(=O)[C@H](C)[C@@H](O)[C@]1(C)O [ERYTHROMYCIN] | 8 µg/mL (≈ 10.9 µM) | > 32 µg/mL | 83.5% |
| C[C@H]1COc2c(N3CCN(C)CC3)c(F)cc3c(=O)c(C(=O)O)cn1c23.C[C@H]1COc2c(N3CCN(C)CC3)c(F)cc3c(=O)c(C(=O)O)cn1c23.O [LEVOFLOXACIN] | 1 µg/mL | > 8 µg/mL | 21% |
| C[C@@H](O)[C@H]1C(=O)N2C(C(=O)O)=C(S[C@@H]3CN[C@H](C(=O)N(C)C)C3)[C@H](C)[C@H]12 [MEROPENEM] | 0.5 µg/mL (≈ 1.3 µM) | 1 µg/mL (≈ 2.61 µM) | 75.9% |
| CC1(C)S[C@@H]2[C@H](NC(=O)Cc3ccccc3)C(=O)N2[C@H]1C(=O)O [PENICILLIN G] | 4 µg/mL (≈ 12 µM) | 4 µg/mL (≈ 12 µM) | 85.7% |

Reference: ChEMBL document CHEMBL1255263, “Activity of the Diaminopyrimidine AR-709 against recently collected multidrug-resistant isolates of invasive Streptococcus pneumoniae from North America” (2008)
